The values that follow come from patent US7414023B2, “Peptide ligands for prostate specific antigen” (Licentia Ltd., priority 2000, dated 2008).

Bridge positions count the residues as written; N and C are the ends. Peptide text beside a SMILES is read from it.

Experiment [1] concerns the target T1, PSA (Homo sapiens, UniProt P07288). Description: Inhibition of GST-peptide binding to PSA by chemically synthesized peptides. Set-up: PSA was purified from human seminal fluid as described previously (3); from tissue. Conditions: synthetic peptide GACVAYCIEHHCWTCGA in 20-fold molar excess. On the procedure:
Peptides A1 and C4 were synthesized by standard solid phase Merrifield peptide synthesis using fmoc-chemistry. The peptides were assayed for binding with PSA by studying the ability of the synthetic peptide to inhibit the binding of the corresponding GST peptide with PSA. Synthetic peptide (0-333 nM) and the corresponding GST peptide (167 nM) were incubated with PSA captured by MAb 5E4 for 1 h. After this, the wells were washed, after which Eu^3+-labeled anti GST antibody was added. After further incubation and washing the bound fluorescence was measured as described above.
PSA had been captured by anti-PSA MAb in the microtitration wells. The binding was measured by IFMA.

The target of experiment [2] is T1, PSA. The experiment in a line: Proteolytic cleavage of IGF-BP-3 by PSA, IGF-BP-3 IFMA. The conditions noted are these: PSA 5 μg/mL, 100-fold molar excess of synthetic peptide, IGF-BP-3 70 ng/mL, 16 h at 37° C.; PSA alone 30%. Set-up: PSA was purified from human seminal fluid as described previously (3); from tissue; host or cells: human seminal fluid. Format: biochemical. On the procedure: The extent of the cleavage of the substrate was quantitated by monitoring the decrease in IGF-BP-3 immunoreactivity due to proteolytic cleavage of it. PSA (5 μg/mL) was incubated with IGF-BP-3 (70 ng/mL) for 16 h at 37° C. with 100-fold molar excess of peptides to PSA and measured for IGF-BP3 immunoreactivity by IFMA as described (33). As control, the peptide was also added to the reaction mixture containing PSA and IGF-BP3 just before starting the immunoassay to quantify the possible interference of the peptide in the IFMA for IGF-BP-3.
In the experiments, PSA (5 μg/mL) in TBS buffer, pH 7.8 alone or with 100-fold molar excess of peptide was incubated with IGF-BP-3 (70 ng/mL) for 16 h at 37° C., after which the concentration of intact IGF-BP-3 was determined by IFMA.

T1 sequence (P07288 25-261): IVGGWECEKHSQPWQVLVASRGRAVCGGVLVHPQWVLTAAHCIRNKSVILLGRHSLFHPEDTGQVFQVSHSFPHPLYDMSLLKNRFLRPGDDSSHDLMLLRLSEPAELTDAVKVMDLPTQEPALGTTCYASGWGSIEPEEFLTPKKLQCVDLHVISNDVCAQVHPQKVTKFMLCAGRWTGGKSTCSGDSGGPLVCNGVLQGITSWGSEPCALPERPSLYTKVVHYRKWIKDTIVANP

For the compound `CC[C@H](C)[C@@H]1NC(=O)[C@@H]2CSSC[C@H](NC(=O)[C@H](Cc3c[nH]cn3)NC(=O)[C@H](Cc3c[nH]cn3)NC(=O)[C@H](CCC(=O)O)NC1=O)C(=O)N[C@@H](Cc1c[nH]c3ccccc13)C(=O)N[C@@H]([C@@H](C)O)C(=O)N[C@H](C(=O)O)CSSC[C@H](N)C(=O)N[C@@H](C(C)C)C(=O)N[C@@H](C)C(=O)N[C@@H](Cc1ccc(O)cc1)C(=O)N2` [Peptide C-4] (H-CVAYCIEHHCWTC-OH; disulfide 1-13, 5-10; N-terminus and C-terminus assumed), the “inhibition of the binding of the corresponding GST-peptide to PSA” value at PSA [1] is listed as “about 70%”. In addition, the “cleavage of IGF-BP-3 by PSA in the presence of peptide” value on PSA [2] is recorded as “about 70%”.
